In article PMC7993833, “EDP-938, a novel nucleoprotein inhibitor of respiratory syncytial virus, demonstrates potent antiviral activities in vitro and in a non-human primate model” (PLoS Pathogens, 2021):
Entries after “also recorded” stand apart in the source; their conditions may differ. Where two headings read alike, the source gives them in different places.

What was measured:
RSV-A Long [1] = test: RT-qPCR viral load assay, RSV-A Long in HEp-2 cells; type: cell-based; conditions: human respiratory syncytial virus, HEp-2, RT-qPCR
RSV-B VR-955 = test: RT-qPCR assay, RSV-B VR-955 in HEp-2 cells; type: cell-based; conditions: human respiratory syncytial virus
Method: (§1) HEp-2, Vero, and BHK were seeded at 8,000 cells per well (cpw) in growth medium (Dulbecco’s Modified Eagle Medium (DMEM) with 1% GlutaMAX, 1% Penicillin/Streptomycin (P/S), 1% Non-Essential Amino Acids (NEAA), 10% Fetal Bovine Serum (FBS)) or (Minimum Essential Medium (MEM) with 10% FBS, 1% NEAA, 1% P/S) or (Eagle’s Minimum Essential Medium with L-Glutamine, with 10% FBS, 1% P/S) respectively. A549 seeded at 3,000 cpw in F-12K Kaighn’s Modification nutrient mixture with 10% FBS, 1% NEAA, 1% P/S. Cells seeded at time of infection in 96-well plates, final well volume 100μL. Compounds suspended in DMSO, serially diluted and added to wells at 0.5% final DMSO concentration. Viral stocks stabilized with 25% sucrose, previously titered using plaque assay, were added at desired MOI. Sucrose added to cells-only control wells to match percent added with virus. Unless otherwise noted, RSV-A strains were tested at 0.1 MOI and incubated for 5 days in a 37°C, 5% CO2 humidified incubator, and RSV-B at 0.5 MOI for 6 days. Cytopathic effect (CPE) determined using ATPlite (Perkin Elmer) measured with Envision luminometer. For RT-qPCR, RNA was extracted from whole well using Ambion RNAqueous-96 Automated Kit, and RT-qPCR run using Applied Biosystems TaqMan RNA-to-CT 1-Step Kit. […] All EC50s were calculated using the XLFit four-parameter logistic model 200 in Microsoft Excel.

RSV-A2 = test: RT-qPCR assay, RSV-A2 in Vero cells; type: cell-based; conditions: human respiratory syncytial virus
Method: as §1

RSV-A Long [2] = test: RT-qPCR assay, RSV-A Long in primary cotton rat lung cells; type: cell-based; conditions: human respiratory syncytial virus, 120 h, RSV-A Long MOI 0.1, 5 days
RSV-A Long [3] = test: RT-qPCR assay, RSV-A Long in primary neonatal lamb bronchial epithelial cells; type: cell-based; conditions: human respiratory syncytial virus, Epithelial cell
[4] = tested on: RSV-A and RSV-B laboratory strains; test: CPE assay, RSV laboratory strains across primate cell lines; type: cell-based; conditions: human respiratory syncytial virus, in Primates, read-out: EC50 values, inhibition of CPE (range over strains and cells)
Method: (§2) The activity of EDP-938 against both RSV-A and RSV-B was evaluated in vitro against multiple laboratory strains commonly used for antiviral screens in HEp-2 cells, human adenocarcinomic alveolar basal epithelial cells (A549), monkey kidney-derived cells (Vero), and Baby Hamster Kidney cells (BHK). Serial dilutions of the compound were added to cells infected with RSV-A at a MOI of 0.1 or RSV-B at an MOI of 0.5 and treated for 5 or 6 days, respectively.
(§3) HEp-2, Vero, and BHK were seeded at 8,000 cells per well (cpw) in growth medium (Dulbecco’s Modified Eagle Medium (DMEM) with 1% GlutaMAX, 1% Penicillin/Streptomycin (P/S), 1% Non-Essential Amino Acids (NEAA), 10% Fetal Bovine Serum (FBS)) or (Minimum Essential Medium (MEM) with 10% FBS, 1% NEAA, 1% P/S) or (Eagle’s Minimum Essential Medium with L-Glutamine, with 10% FBS, 1% P/S) respectively. A549 seeded at 3,000 cpw in F-12K Kaighn’s Modification nutrient mixture with 10% FBS, 1% NEAA, 1% P/S. Cells seeded at time of infection in 96-well plates, final well volume 100μL. Compounds suspended in DMSO, serially diluted and added to wells at 0.5% final DMSO concentration. […] Cytopathic effect (CPE) determined using ATPlite (Perkin Elmer) measured with Envision luminometer. […] All EC50s were calculated using the XLFit four-parameter logistic model 200 in Microsoft Excel.

[5] = tested on: RSV-A and RSV-B laboratory strains; test: RT-qPCR assay, RSV laboratory strains across primate cell lines; type: cell-based; conditions: human respiratory syncytial virus, in Primates, read-out: EC50 values, reduction in viral load by RT-qPCR (range over strains and cells)
Method: as §2, §3

RSV = test: Single-round synchronized infection time-of-addition, RT-qPCR endpoint; type: cell-based, respiratory syncytial virus; conditions: HEp-2; MOI 3; cold-synchronized; 2x or 20x EC50; added 0-8 hpi; RT-qPCR at 24 hpi
Method: In order to help determine which step of the viral life cycle EDP-938 blocks multiple in vitro time-of-addition studies were performed. In the first study, EDP-938 was administered to cells infected with RSV-A Long at a MOI of 0.1 at 2 hours pre-infection (-2) or 2, 6, or 24 hours post-infection (hpi), and viral CPE evaluated 5 days later. […] A second time-of-addition study explored the ability of EDP-938 to protect not just a population experiencing a spreading infection, but individual cells already infected with RSV. Using a MOI of 3, which infects approximately 95% of all cells, virus was cold-adsorbed to the cells for 1 hour to synchronize infection before transfer to 37°C to induce fusion (marking the 0 hpi time point). Compound was added at times indicated and a 24 hpi RT-qPCR endpoint was employed to constrain viral replication cycle to a single complete cycle.
For single round infection synchronized infection 25,000 HEp-2 cpw seeded 1-day pre-infection. Plates brought to 4°C, viral infection at 3 MOI calculated for 30,000 cpw incubated at 4°C 1hr. Compound added to 0h plate and plates moved to 37°C. Compound added at 2h, 4h, 6h, and 8h post-incubation (when plates moved to 37°C) to appropriate plates. 24 hpi viral copies measured with RT-qPCR as described above.

RSV-A Long [6] = test: In vitro combination study (CPE, Loewe additivity, CalcuSyn); type: cell-based, respiratory syncytial virus
Method: The combination effect of EDP-938 with other RSV inhibitors of different mechanisms/targets was investigated in vitro. RSV-A Long infected HEp-2 cells were treated with various concentrations of EDP-938 either alone or in combination with the fusion inhibitor GS-5806, non-nucleoside L polymerase inhibitor AZ-27, nucleoside inhibitor ALS-8112 [38], ribavirin, or palivizumab. The combination of two compounds always led to a greater inhibition than a single agent alone.
To determine whether the effect of the combination was synergistic, additive or antagonistic, the data were analyzed by the Loewe additivity model using Calcusyn software, which gave a Combination Index (CI) value at various effective concentrations of the compounds. […] As an experimental control, adding EDP-938 to itself was additive. For details see S4 Table.
As described above with 8,000 HEp-2 cpw, 0.1 MOI RSV-A Long, 5-day endpoint, and CPE readout. Compounds added in serial 1.3-fold 6-point dilutions across both X- and Y-axes of plate. Plates run in quadruplicate with one uninfected plate for cytotoxicity. Combination indexes calculated using Loewe additivity model using CalcuSyn software from Biosoft.

[7] = tested on: recombinant RSV A2-line19F, N protein mutants

## O=C1Nc2ccccc2C(c2ccccc2)=N[C@@H]1Nc1nnc(-c2ncc(C(F)(F)F)cc2N2CCOCC2)o1 [EDP-938]
RSV-A Long [1]; 120 h, RSV-A Long MOI 0.1, 5 days, read-out: EC50
  EC50: 89 ± 16 nM
RSV-A Long [1]; RSV-A Long
  EC90: 91 ± 62 nM
RSV-B VR-955; 144 h, RSV-B VR-955 MOI 0.5, 6 days
  EC50: 110 ± 22 nM
RSV-B VR-955; RSV-B VR-955
  EC90: 140 ± 24 nM
RSV-A2
  EC50: 91 nM
  EC90: 101 ± 1.7 nM
RSV-A Long [2]
  EC50: 10300 nM
RSV-A Long [3]; 144 h, RSV-A Long MOI 0.1, 6 days
  EC50: > 800 nM
RSV-A Long [3]; RSV-A Long
  EC90: > 800 nM
[4]
  EC50: 28 to 72 nM
[5]
  EC50: 54 to 110 nM
RSV
  inhibition of viral RNA production by time of addition: inhibited RNA production at all time points up to 8 hpi
RSV-A Long [6]; EDP-938 added to itself, CI 0.9–1.1 additivity, <0.9 synergy, >1.1 antagonism
  combination effect (Combination Index): additive; also recorded: additivity
RSV-A Long [6]; EDP-938 combined with ALS-8112, AZ-27, GS-5806 or palivizumab
  combination effect (Combination Index): moderate levels of synergy
RSV-A Long [6]; EDP-938 combined with ribavirin
  combination effect (Combination Index): additivity
[7]; recombinant RSV N K107N
  EC50 Fold Change vs. WT: 1.2 fold
[7]; recombinant RSV N K136R
  EC50 Fold Change vs. WT: 2.7 fold
[7]; recombinant RSV N L139I
  EC50 Fold Change vs. WT: 7.2 fold
[7]; recombinant RSV N M109I
  EC50 Fold Change vs. WT: 1.6 fold
[7]; recombinant RSV N M109K
  EC50 Fold Change vs. WT: 26.9 fold
[7]; recombinant RSV N M109T
  EC50 Fold Change vs. WT: 5.4 fold
[7]; recombinant RSV N N105D
  EC50 Fold Change vs. WT: 1.3 fold
[7]; recombinant RSV N S134T
  EC50 Fold Change vs. WT: 2.2 fold
[7]; recombinant RSV N V90A
  EC50 Fold Change vs. WT: 1.0 fold
[7]; recombinant RSV Wild-type (WT)
  EC50 Fold Change vs. WT: 1.0 fold
